Results published in patent publication US12319709B2, “Diaryl trehalose compounds and uses thereof” (THE UNIVERSITY OF MONTANA, priority 2018, dated 2025).

Columns and labels:
Balb/c mice = assay: i.m. immunization of Balb/c mice with M72 antigen and liposomal adjuvant; splenocyte restimulation, intracellular cytokine staining; format: in vivo, mouse; details: for antigen-specific CD4+ and CD8+ IL-17A producing cells (Th17 response): M72 restimulated splenocytes, TDB at highest dose
[1] = system: peripheral blood mononuclear cells (PBMCs); assay: IL-6 induction in fresh human PBMCs; format: cell-based
Procedure, shortened: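 Fresh human PBMCs incubated at 37 °C with serially diluted compounds delivered in DMSO into medium. IL-6 in supernatants quantified by ELISA 18 h after treatment.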

RAW264.7 cells = assay: Cytokine (TNFα) response of mouse macrophage cell line; Table 2 'Murine'; format: cell-based; design: Maximum cytokine response Murine: unit not given here; details: NR = no response
Protocol: Compounds were also tested in a mouse macrophage cell line (FIG. 4B). RAW264.7 cells were subjected to increasing concentrations of the compounds and assessed for production of the cytokine TNFα.

[2] = system: peripheral blood mononuclear cells (PBMCs); assay: Cytokine analysis of supernatants of stimulated, freshly prepared PBMCs; format: cell-based, human; details: compounds solubilized in DMSO
Protocol: Tumor necrosis factor alpha (TNFα) and IL-6 production in peripheral blood mononuclear cells (PBMCs) was measured after exposure to various concentrations of the DAT compounds synthesized as shown above. Initial studies focused on two different methods of delivery of the DAT compounds to PBMC cultures. In the first delivery method, the indicated derivative compound was dissolved in isopropanol, serially diluted, and then dried to the bottom of a tissue culture plate. In the second delivery method, the indicated derivative compound was dissolved in DMSO and serially diluted into tissue culture media. In each method, PBMCs were added to the compounds and incubated at 37° C. TNFα (FIG. 1A) and IL-6 (FIG. 1B) were measured after 18-24 hours after treatment by ELISA assay.
Supernatants from the freshly prepared PBMCs stimulated with DAT compounds solubilized in DMSO (Example 5A) were analyzed for the cytokines that help drive Th1 cell or Th17 cell adaptive immune responses; IFNγ, IL-12 p70, IL-6, IL-1β, and IL-23. Minimal amounts of IL-12p70 were detected and IFNγ was undetectable. Therefore, both are not reported.

Mincle receptor = target: T1, Mincle receptor (Mus musculus, UniProt Q9R0Q8); assay: HEK-Blue Mincle mouse reporter cells, NF-κB SEAP production; format: cell-based
T1 construct: expressed in transfected cells; host or cells: HEK-Blue Mincle reporter cells (HEK293-derived, NF-kB SEAP reporter)
T1 sequence (Q9R0Q8 1-214): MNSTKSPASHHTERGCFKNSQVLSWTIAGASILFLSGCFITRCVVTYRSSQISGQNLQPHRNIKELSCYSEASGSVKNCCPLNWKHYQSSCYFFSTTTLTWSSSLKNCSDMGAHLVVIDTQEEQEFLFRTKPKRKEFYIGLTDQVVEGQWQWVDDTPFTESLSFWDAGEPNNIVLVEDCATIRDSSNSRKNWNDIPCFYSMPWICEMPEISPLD
Protocol: Compounds were also tested in the commercial reporter Hek-Blue™ cell lines. Hek-Blue™ cells were treated with increasing concentrations of the indicated compound for 18 to 24 hours. Isolated supernatants were measured for NF-κB secreted embryonic alkaline phosphatase (SEAP) production with QUANTI-Blue™ reagent (FIG. 4A). SEAP production was robust for both the mouse and human reporter lines (FIG. 4A), indicating strong signaling through the Mincle receptor in both human and murine systems.

SMILES: CCCCCCCCCCCCCCCCCCCCCC(=O)OC[C@H]1O[C@H](O[C@H]2O[C@H](COC(=O)CCCCCCCCCCCCCCCCCCCCC)[C@@H](O)[C@H](O)[C@H]2O)[C@H](O)[C@@H](O)[C@@H]1O [TDB, trehalose dibehenate, reference compound]
- antigen-specific CD4+ and CD8+ IL-17A producing cells (Th17 response) (Balb/c mice; liposomal formulation): induced some IL-17A

SMILES: CC(C)c1cc(C(=O)OC[C@H]2O[C@H](O[C@H]3O[C@H](COC(=O)c4cc(C(C)C)cc(C(C)C)c4O)[C@@H](O)[C@H](O)[C@H]3O)[C@H](O)[C@@H](O)[C@@H]2O)c(O)c(C(C)C)c1 [UM1023, 6,6′-bis-(3,5-di-iso-propylsalisate)-α,α-trehalose]
- IL-6 production / activity in fresh PBMCs from multiple donors (in words) ([1]; compounds in DMSO serially diluted in media, supernatants 18 h after treatment): lower activity
- Maximum cytokine response Murine (RAW264.7 cells): 2.5
- Minimal Effective Concentration Murine (RAW264.7 cells): 0.45 µM
- TNFα response in PBMCs (in words) [2]: higher responding

SMILES: CC(C)(C)c1cc(C(=O)OCC2OC(OC3OC(COC(=O)c4cc(C(C)(C)C)cc(C(C)(C)C)c4O)C(O)C(O)C3O)C(O)C(O)C2O)c(O)c(C(C)(C)C)c1 (stereo not drawn) [UM1024, 6,6′-bis-(3,5-di-tert-butylsalisate)-α,α-trehalose]
- NF-κB SEAP production, mouse reporter line (Mincle receptor; 18 to 24 hours, QUANTI-Blue): distinct very high peak at low concentration of compound
- potency shift in comparison with other compounds, reporter cells (Mincle receptor; HEK-Blue Mincle reporter, compared with PBMC cytokine profiles): did not display a large leftward potency shift
- Maximum cytokine response h-IL-6 ([1]; human IL-6, NR = no response): 3.5 OD
- Minimal Effective Concentration h-IL-6 ([1]; human IL-6, NR = no response): 1 µM
- increased potency (EC50) for induction of cytokines relative to other compounds ([1]; human PBMCs): over 1000 ×
- Maximum cytokine response Murine (RAW264.7 cells): 3
- Minimal Effective Concentration Murine (RAW264.7 cells): 0.45 µM
- TNFα response in PBMCs (in words) [2]: higher responding
- IL-2 production compared to controls (Balb/c mice; 10 nmol group): substantially increased
- TNFα production compared to controls (Balb/c mice; higher doses): increased compared to controls
- antigen-specific CD4+ and CD8+ IL-17A producing cells (Th17 response) (Balb/c mice; liposomal formulation): induced high levels of antigen-specific CD4+ and CD8+ IL17A producing cells
- IL-5 production (Th2 response) in restimulated cells (Balb/c mice; liposomal formulation, M72 vaccine): seen in restimulated cells
